{"source": "ChEMBL document CHEMBL4138234", "about": "“Aegeline inspired synthesis of novel amino alcohol and thiazolidinedione hybrids with antiadipogenic activity in 3T3-L1 cells” (Eur J Med Chem, 2018)", "key": {"3T3-L1 [1]": {"test_system": "3T3-L1", "test": "Anti-adipogenic activity in mouse 3T3L1 preadipocytes assessed as reduction in lipid accumulation at 20 uM by Oil Red O absorbance assay", "assay_type": "functional, cell-based"}, "3T3-L1 [2]": {"test_system": "3T3-L1", "test": "Anti-adipogenic activity in mouse 3T3L1 preadipocytes in differentiation media assessed as reduction in lipid accumulation by Oil Red O staining microscopic method", "assay_type": "functional, cell-based"}, "3T3-L1 [3]": {"test_system": "3T3-L1", "test": "Anti-adipogenic activity in mouse 3T3L1 preadipocytes assessed as reduction in MDI induced-lipid accumulation at 10 uM after 20 mins by Oil Red O staining-based assay", "assay_type": "functional, cell-based"}, "3T3-L1 [4]": {"test_system": "3T3-L1", "test": "Anti-adipogenic activity in mouse 3T3L1 cells assessed as reduction in lipid accumulation at 20 uM incubated up to 6 days by Oil Red O absorbance assay", "assay_type": "functional, cell-based"}, "3T3-L1 [5]": {"test_system": "3T3-L1", "test": "Cell cycle arrest in mouse 3T3L1 cells assessed as accumulation at S phase at 10 uM after 24 hrs by propidium iodide-staining based flow cytometry (reference value: 22%)", "assay_type": "functional"}, "3T3-L1 [6]": {"test_system": "3T3-L1", "test": "Cell cycle arrest in mouse 3T3L1 cells assessed as accumulation at S phase at 20 uM after 24 hrs by propidium iodide-staining based flow cytometry (reference value: 22%)", "assay_type": "functional"}, "[7]": {"target": "T1, Peroxisome proliferator-activated receptor gamma (Mus musculus) (UniProt P37238)", "T1 sequence (whole entry)": "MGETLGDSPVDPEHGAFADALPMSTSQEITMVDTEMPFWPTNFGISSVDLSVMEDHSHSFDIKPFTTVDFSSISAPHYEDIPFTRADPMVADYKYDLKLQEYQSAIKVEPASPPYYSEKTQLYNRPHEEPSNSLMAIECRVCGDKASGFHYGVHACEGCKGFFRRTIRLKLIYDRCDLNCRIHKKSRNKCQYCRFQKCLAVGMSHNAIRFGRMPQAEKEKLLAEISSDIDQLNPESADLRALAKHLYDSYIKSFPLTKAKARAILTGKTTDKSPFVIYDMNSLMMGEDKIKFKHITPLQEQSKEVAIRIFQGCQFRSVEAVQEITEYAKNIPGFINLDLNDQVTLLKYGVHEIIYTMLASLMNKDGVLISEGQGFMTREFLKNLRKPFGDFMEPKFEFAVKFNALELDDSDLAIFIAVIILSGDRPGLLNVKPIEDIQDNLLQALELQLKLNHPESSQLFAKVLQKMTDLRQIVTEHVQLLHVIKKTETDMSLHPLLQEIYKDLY", "test": "Inhibition of PPARgamma mRNA levels in mouse 3T3L1 preadipocytes at 20 uM after 6 days by RT-PCR analysis", "assay_type": "cell-based"}, "[8]": {"target": "CCAAT/enhancer-binding protein alpha (Mus musculus) (UniProt P53566)", "sequence (P53566 whole entry)": "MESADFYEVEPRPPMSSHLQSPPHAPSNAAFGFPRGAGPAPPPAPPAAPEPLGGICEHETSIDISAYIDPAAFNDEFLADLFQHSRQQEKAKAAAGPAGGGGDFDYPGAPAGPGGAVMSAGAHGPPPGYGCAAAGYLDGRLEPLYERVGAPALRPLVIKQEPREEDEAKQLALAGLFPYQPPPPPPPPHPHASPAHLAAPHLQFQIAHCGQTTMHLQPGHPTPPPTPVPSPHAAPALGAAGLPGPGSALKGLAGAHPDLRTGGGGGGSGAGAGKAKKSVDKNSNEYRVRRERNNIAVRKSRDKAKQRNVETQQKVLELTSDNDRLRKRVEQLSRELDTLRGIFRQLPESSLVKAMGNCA", "test": "Inhibition of C/EBPalpha mRNA levels in mouse 3T3L1 preadipocytes at 20 uM after 6 days by RT-PCR analysis", "assay_type": "cell-based"}, "Mus musculus [9]": {"species": "Mus musculus", "test": "Inhibition of PPARgamma/CEBPalpha-mediated increase in aP2 mRNA levels in mouse 3T3L1 preadipocytes at 20 uM after 6 days by RT-PCR analysis", "assay_type": "cell-based"}, "Mus musculus [10]": {"species": "Mus musculus", "test": "Inhibition of PPARgamma/CEBPalpha-mediated increase in FAS mRNA levels in mouse 3T3L1 preadipocytes at 20 uM after 6 days by RT-PCR analysis", "assay_type": "cell-based"}, "[11]": {"target": "T1, Peroxisome proliferator-activated receptor gamma (Mus musculus)", "test": "Inhibition of PPARgamma protein expression in mouse 3T3L1 preadipocytes at 20 uM up to 6 days by Western blot analysis", "assay_type": "cell-based"}, "[12]": {"target": "CCAAT/enhancer-binding protein alpha (Mus musculus) (UniProt P53566)", "test": "Inhibition of C/EBPalpha protein expression in mouse 3T3L1 preadipocytes at 20 uM up to 6 days by Western blot analysis", "assay_type": "cell-based"}, "Mus musculus [13]": {"species": "Mus musculus", "test": "Inhibition of PPARgamma/CEBPalpha-mediated increase in aP2 protein expression in mouse 3T3L1 preadipocytes at 20 uM up to 6 days by Western blot analysis", "assay_type": "cell-based"}, "Mus musculus [14]": {"species": "Mus musculus", "test": "Inhibition of PPARgamma/CEBPalpha-mediated increase in FAS protein expression in mouse 3T3L1 preadipocytes at 20 uM up to 6 days by Western blot analysis", "assay_type": "cell-based"}, "3T3-L1 [15]": {"test_system": "3T3-L1", "test": "Anti-adipogenic activity in mouse 3T3L1 preadipocytes in differentiation medium assessed as reduction in lipid accumulation at 20 uM by Oil Red O absorbance assay relative to control", "assay_type": "functional", "set-up": "scale not given: the % may be the effect or the level left"}, "3T3-L1 [16]": {"test_system": "3T3-L1", "test": "Anti-adipogenic activity in mouse 3T3L1 cells assessed as reduction in lipid accumulation at 20 uM incubated up to 6 days by Oil Red O staining based microscopic method", "assay_type": "functional, cell-based"}, "3T3-L1 [17]": {"test_system": "3T3-L1", "test": "Anti-adipogenic activity in mouse 3T3L1 cells assessed as reduction in lipid accumulation at 20 uM incubated for 2 to 4 days by Oil Red O staining based microscopic method", "assay_type": "functional, cell-based"}, "3T3-L1 [18]": {"test_system": "3T3-L1", "test": "Anti-adipogenic activity in mouse 3T3L1 cells assessed as reduction in lipid accumulation at 20 uM incubated for 2 to 6 days by Oil Red O staining based microscopic method", "assay_type": "functional, cell-based"}, "3T3-L1 [19]": {"test_system": "3T3-L1", "test": "Anti-adipogenic activity in mouse 3T3L1 cells assessed as reduction in lipid accumulation at 20 uM incubated for 4 to 6 days by Oil Red O staining based microscopic method", "assay_type": "functional, cell-based"}, "3T3-L1 [20]": {"test_system": "3T3-L1", "test": "Anti-adipogenic activity in mouse 3T3L1 cells assessed as reduction in lipid accumulation at 20 uM incubated for 2 to 4 days by Oil Red O absorbance method", "assay_type": "functional, cell-based"}, "3T3-L1 [21]": {"test_system": "3T3-L1", "test": "Anti-adipogenic activity in mouse 3T3L1 cells assessed as reduction in lipid accumulation at 20 uM incubated for 2 to 6 days by Oil Red O absorbance method", "assay_type": "functional, cell-based"}, "3T3-L1 [22]": {"test_system": "3T3-L1", "test": "Anti-adipogenic activity in mouse 3T3L1 cells assessed as reduction in lipid accumulation at 20 uM incubated for 4 to 6 days by Oil Red O absorbance method", "assay_type": "functional, cell-based"}, "3T3-L1 [23]": {"test_system": "3T3-L1", "test": "Cell cycle arrest in mouse 3T3L1 cells assessed as accumulation at S phase at 10 to 20 uM after 16 hrs by propidium iodide-staining based flow cytometry", "assay_type": "functional"}, "3T3-L1 [24]": {"test_system": "3T3-L1", "test": "Cytotoxicity against mouse 3T3L1 cells", "assay_type": "cell-based"}}, "note": "Calls of active or inactive are those of the source. No cut-off for these calls is given here.", "data": [{"smiles": "O=C1NC(=O)/C(=C/c2ccc(OCC(O)COC(=O)c3ccc(Cl)nc3)cc2)S1", "note": "(centres undefined)", "values": [{"measurement": "Activity", "setting": "3T3-L1 [1]", "value": "inactive"}]}, {"smiles": "COc1ccc(C(=O)OCC(O)COc2ccc(/C=C3\\SC(=O)NC3=O)cc2)c(OC)c1", "note": "(centres undefined)", "values": [{"measurement": "Activity", "setting": "3T3-L1 [1]", "value": "inactive"}]}, {"smiles": "O=C1NC(=O)/C(=C/c2ccc(OCC(O)COC(=O)c3cccnc3)cc2)S1", "note": "(centres undefined)", "values": [{"measurement": "Activity", "setting": "3T3-L1 [1]", "value": "inactive"}]}, {"smiles": "O=C1S/C(=C\\c2ccc(OCC(O)CNCc3ccccn3)cc2)C(=O)N1Cc1ccccc1Br", "note": "(centres undefined)", "values": [{"measurement": "Activity", "setting": "3T3-L1 [1]", "value": "Active"}]}, {"smiles": "O=C1S/C(=C\\c2ccc(OCC(O)CNCc3ccccn3)cc2)C(=O)N1Cc1ccccc1", "note": "(centres undefined)", "values": [{"measurement": "Activity", "setting": "3T3-L1 [2]", "value": "Dose-dependent effect"}, {"measurement": "Activity", "setting": "3T3-L1 [1]", "value": "Active"}, {"measurement": "Activity", "setting": "3T3-L1 [3]", "value": "Active"}, {"measurement": "Activity", "setting": "3T3-L1 [4]", "value": "Active"}, {"measurement": "Activity", "setting": "3T3-L1 [5]", "value": 37, "unit": "%"}, {"measurement": "Activity", "setting": "3T3-L1 [6]", "value": 36, "unit": "%"}, {"measurement": "inhibition", "setting": "[7]", "value": "Active"}, {"measurement": "inhibition", "setting": "[8]", "value": "Active"}, {"measurement": "inhibition", "setting": "Mus musculus [9]", "value": "Active"}, {"measurement": "inhibition", "setting": "Mus musculus [10]", "value": "Active"}, {"measurement": "inhibition", "setting": "[11]", "value": "Active"}, {"measurement": "inhibition", "setting": "[12]", "value": "Active"}, {"measurement": "inhibition", "setting": "Mus musculus [13]", "value": "Active"}, {"measurement": "inhibition", "setting": "Mus musculus [14]", "value": "Active"}, {"measurement": "Activity", "setting": "3T3-L1 [15]", "value": ">50", "unit": "%"}, {"measurement": "Activity", "setting": "3T3-L1 [16]", "value": "Active"}, {"measurement": "Activity", "setting": "3T3-L1 [17]", "value": "Active"}, {"measurement": "Activity", "setting": "3T3-L1 [18]", "value": "Active"}, {"measurement": "Activity", "setting": "3T3-L1 [19]", "value": "Active"}, {"measurement": "Activity", "setting": "3T3-L1 [20]", "value": "Active"}, {"measurement": "Activity", "setting": "3T3-L1 [21]", "value": "Active"}, {"measurement": "Activity", "setting": "3T3-L1 [22]", "value": "Active"}, {"measurement": "Activity", "setting": "3T3-L1 [23]", "value": "inactive"}]}, {"smiles": "O=C1S/C(=C\\c2ccc(OCC(O)CNCc3cccnc3)cc2)C(=O)N1Cc1ccccc1", "note": "(centres undefined)", "values": [{"measurement": "Activity", "setting": "3T3-L1 [1]", "value": "inactive"}]}, {"smiles": "O=C(Cc1ccc(Cl)cc1)OCC(O)COc1ccc(/C=C2\\SC(=O)NC2=O)cc1", "note": "(centres undefined)", "values": [{"measurement": "Activity", "setting": "3T3-L1 [1]", "value": "inactive"}]}, {"smiles": "O=C1S/C(=C\\c2ccc(OCC(O)CNCc3cccnc3)cc2)C(=O)N1Cc1ccccc1Br", "note": "(centres undefined)", "values": [{"measurement": "Activity", "setting": "3T3-L1 [1]", "value": "inactive"}]}, {"smiles": "CC(NCC(O)COc1ccc(/C=C2\\SC(=O)N(Cc3ccccc3)C2=O)cc1)c1ccccc1", "note": "(centres undefined)", "values": [{"measurement": "Activity", "setting": "3T3-L1 [24]", "value": "Toxic"}]}, {"smiles": "O=C1S/C(=C\\c2ccc(OCC(O)CNCc3cccnc3)cc2)C(=O)N1Cc1ccc(F)cc1", "note": "(centres undefined)", "values": [{"measurement": "Activity", "setting": "3T3-L1 [1]", "value": "inactive"}]}, {"smiles": "CC(NCC(O)COc1ccc(/C=C2\\SC(=O)N(Cc3ccccc3Br)C2=O)cc1)c1ccccc1", "note": "(centres undefined)", "values": [{"measurement": "Activity", "setting": "3T3-L1 [24]", "value": "Toxic"}]}, {"smiles": "O=C1S/C(=C\\c2ccc(OCC(O)CNCc3ccccn3)cc2)C(=O)N1Cc1ccc(F)cc1", "note": "(centres undefined)", "values": [{"measurement": "Activity", "setting": "3T3-L1 [24]", "value": "Toxic"}]}]}
